Experimental data as given in ChEMBL document CHEMBL1909046, “DrugMatrix in vitro pharmacology data”.

Key:
[1] = target: Aldo-keto reductase family 1 member B1 (Rattus norvegicus, UniProt P07943); experiment: biochemical; format: tissue-based, Lens of camera-type eye;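 also: inhibition of aldose reductase enzyme activity, measured with DL-glyceraldehyde as the substrate; in other assays of this panel Not Active means under 50% inhibition at 10 µM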
[2] = target: T1, Muscarinic acetylcholine receptor M4 (Homo sapiens, UniProt P08173); format: cell membranes, CHO-K1, Membrane; settings: cho-k1; also: in other assays of this panel Not Active means under 50% inhibition at 10 µM
T1 sequence (P08173 whole entry): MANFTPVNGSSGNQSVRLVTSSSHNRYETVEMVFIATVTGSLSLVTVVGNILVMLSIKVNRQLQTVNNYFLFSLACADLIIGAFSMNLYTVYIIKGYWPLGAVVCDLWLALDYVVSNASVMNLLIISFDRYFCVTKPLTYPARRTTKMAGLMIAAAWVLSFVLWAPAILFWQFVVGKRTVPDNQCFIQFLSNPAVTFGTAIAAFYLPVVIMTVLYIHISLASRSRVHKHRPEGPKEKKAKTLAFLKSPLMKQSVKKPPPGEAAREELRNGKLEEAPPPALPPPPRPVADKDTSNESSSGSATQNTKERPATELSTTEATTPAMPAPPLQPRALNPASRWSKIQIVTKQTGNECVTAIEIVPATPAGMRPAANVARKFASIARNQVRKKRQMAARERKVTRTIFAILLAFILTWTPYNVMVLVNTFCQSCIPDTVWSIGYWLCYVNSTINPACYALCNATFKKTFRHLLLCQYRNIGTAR

[3] = target: T2, Alpha-1B adrenergic receptor (Rattus norvegicus, UniProt P15823); experiment: DRUGMATRIX: Alpha-1B adrenergic receptor radioligand binding (ligand: prazosin); format: cell membranes, Wistar, Liver, Membrane; settings: Not Active = under 50% inhibition at 10 µM
T2 sequence (P15823 whole entry): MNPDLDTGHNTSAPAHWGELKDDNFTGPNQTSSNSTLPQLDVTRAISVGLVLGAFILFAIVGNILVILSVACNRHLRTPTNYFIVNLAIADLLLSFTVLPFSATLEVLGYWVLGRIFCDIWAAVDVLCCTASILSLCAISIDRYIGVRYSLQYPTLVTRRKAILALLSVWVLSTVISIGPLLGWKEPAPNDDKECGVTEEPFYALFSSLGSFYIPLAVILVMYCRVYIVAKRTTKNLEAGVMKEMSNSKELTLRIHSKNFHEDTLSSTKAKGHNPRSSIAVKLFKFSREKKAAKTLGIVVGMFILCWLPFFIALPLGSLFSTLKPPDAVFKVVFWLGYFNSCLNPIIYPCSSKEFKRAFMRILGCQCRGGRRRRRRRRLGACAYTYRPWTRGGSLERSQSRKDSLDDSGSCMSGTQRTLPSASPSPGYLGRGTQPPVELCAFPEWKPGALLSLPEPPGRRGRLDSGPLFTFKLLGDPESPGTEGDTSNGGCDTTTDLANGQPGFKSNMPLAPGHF

[4] = target: T3, Cysteinyl leukotriene receptor 1 (Homo sapiens, UniProt Q9Y271); format: cell membranes, Membrane; settings: cho-k1; also: in other assays of this panel Not Active means under 50% inhibition at 10 µM
T3 sequence (Q9Y271 whole entry): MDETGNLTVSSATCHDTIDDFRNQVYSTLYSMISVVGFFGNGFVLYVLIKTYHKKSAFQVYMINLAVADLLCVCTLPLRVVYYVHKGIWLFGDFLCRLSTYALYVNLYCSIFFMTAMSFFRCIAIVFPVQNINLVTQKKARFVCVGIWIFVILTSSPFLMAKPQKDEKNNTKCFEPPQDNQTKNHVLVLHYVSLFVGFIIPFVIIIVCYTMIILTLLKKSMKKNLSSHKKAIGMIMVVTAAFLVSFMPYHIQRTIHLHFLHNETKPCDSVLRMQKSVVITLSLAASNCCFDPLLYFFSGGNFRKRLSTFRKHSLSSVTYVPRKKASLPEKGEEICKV

[5] = target: T4, C-X-C chemokine receptor type 1 (Homo sapiens, UniProt P25024); also: in other assays of this panel Not Active means under 50% inhibition at 10 µM
T4 sequence (P25024 whole entry): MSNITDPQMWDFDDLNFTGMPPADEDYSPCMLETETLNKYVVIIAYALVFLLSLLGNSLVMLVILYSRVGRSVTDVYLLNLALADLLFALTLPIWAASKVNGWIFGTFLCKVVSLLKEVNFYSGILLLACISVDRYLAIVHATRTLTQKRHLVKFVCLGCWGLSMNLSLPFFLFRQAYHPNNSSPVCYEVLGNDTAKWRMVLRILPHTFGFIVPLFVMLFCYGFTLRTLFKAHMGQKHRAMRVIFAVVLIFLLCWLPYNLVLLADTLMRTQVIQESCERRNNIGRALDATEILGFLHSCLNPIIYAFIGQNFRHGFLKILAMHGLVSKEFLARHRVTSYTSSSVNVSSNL

[6] = DRUGMATRIX: Sodium/nucleoside co-transporter radioligand binding (ligand: nitrobenzylthioinosine); format: cell membranes, Cavia porcellus, Dunkin-Hartley, Cerebral cortex, Membrane; settings: Not Active = under 50% inhibition at 10 µM

COc1ccccc1N
Not Active: IC50 [1] | IC50 [2] | IC50 [3] | IC50 [4] | IC50 [5] | IC50 [6] | Ki [6]

Cc1c(O)cccc1C(=O)N[C@@H](CSc1ccccc1)[C@H](O)CN1C[C@H]2CCCC[C@H]2C[C@H]1C(=O)NC(C)(C)C
Not Active: IC50 [1] | IC50 [2] | IC50 [3] | IC50 [4] | IC50 [5] | IC50 [6] | Ki [6]

C[C@H]1O[C@H](O[C@H]2[C@H](O)[C@@H](O)[C@@H](O[C@H]3[C@H](O)[C@@H](O)C(O)O[C@@H]3CO)O[C@@H]2CO)[C@H](O)[C@@H](O)[C@@H]1N[C@H]1C=C(CO)[C@@H](O)[C@H](O)[C@H]1O (stereo not given in full) [ACARBOSE]
Not Active: IC50 [1] | IC50 [2] | IC50 [3] | IC50 [4] | IC50 [5] | IC50 [6] | Ki [6]

NC12CC3CC(CC(C3)C1)C2 [AMANTADINE]
Not Active: IC50 [1] | IC50 [2] | IC50 [3] | IC50 [4] | IC50 [5] | IC50 [6] | Ki [6]

CC(C)c1c(C(=O)Nc2ccccc2)c(-c2ccccc2)c(-c2ccc(F)cc2)n1CC[C@@H](O)C[C@@H](O)CC(=O)O [ATORVASTATIN]
Not Active: IC50 [1] | IC50 [2] | IC50 [3] | IC50 [4] | IC50 [5] | IC50 [6] | Ki [6]

C[C@H]1[C@H](NC(=O)/C(=N\OC(C)(C)C(=O)O)c2csc(N)n2)C(=O)N1S(=O)(=O)O [AZTREONAM]
Not Active: IC50 [1] | IC50 [2] | IC50 [3] | IC50 [4] | IC50 [5] | IC50 [6] | Ki [6]

COc1cc(OC)c(C(=O)CCCN2CCCC2)c(OC)c1 [BUFLOMEDIL]
Not Active: IC50 [1] | IC50 [2] | IC50 [3] | IC50 [4] | IC50 [5] | IC50 [6] | Ki [6]

Cn1c(=O)c2c(ncn2C)n(C)c1=O [CAFFEINE]
Not Active: IC50 [1] | IC50 [2] | IC50 [3] | IC50 [4] | IC50 [5] | IC50 [6] | Ki [6]

CO/N=C(\C(=O)N[C@@H]1C(=O)N2C(C(=O)O)=C(COC(C)=O)CS[C@H]12)c1csc(N)n1 [CEFOTAXIME]
Not Active: IC50 [1] | IC50 [2] | IC50 [3] | IC50 [4] | IC50 [5] | IC50 [6] | Ki [6]

Cc1cc(O)cc(C)c1Cl [CHLOROXYLENOL]
Not Active: IC50 [1] | IC50 [2] | IC50 [3] | IC50 [4] | IC50 [5] | IC50 [6] | Ki [6]

NS(=O)(=O)c1cc(C2(O)NC(=O)c3ccccc32)ccc1Cl (stereo not given) [CHLORTHALIDONE]
Not Active: IC50 [1] | IC50 [2] | IC50 [3] | IC50 [4] | IC50 [5] | IC50 [6] | Ki [6]

COc1cccc2c1C(=O)c1c(O)c3c(c(O)c1C2=O)C[C@@](O)(C(C)=O)C[C@@H]3O[C@H]1C[C@H](N)[C@H](O)[C@H](C)O1 [DAUNORUBICIN]
Not Active: IC50 [1] | IC50 [2] | IC50 [3] | IC50 [4] | IC50 [5] | IC50 [6] | Ki [6]

C[S+](C)[O-] [DIMETHYL SULFOXIDE]
Not Active: IC50 [1] | IC50 [2] | IC50 [3] | IC50 [4] | IC50 [5] | IC50 [6] | Ki [6]

C[C@]12CC[C@@H]3c4ccc(O)cc4CC[C@H]3[C@@H]1C[C@@H](O)[C@@H]2O [ESTRIOL]
Not Active: IC50 [1] | IC50 [2] | IC50 [3] | IC50 [4] | IC50 [5] | IC50 [6] | Ki [6]

C#C[C@]1(O)CC[C@H]2[C@@H]3CCC4=CC(=O)CC[C@]4(C)[C@H]3CC[C@@]21C [ETHISTERONE]
Not Active: IC50 [1] | IC50 [2] | IC50 [3] | IC50 [4] | IC50 [5] | IC50 [6] | Ki [6]

CC(O)(P(=O)(O)O)P(=O)(O)O [ETIDRONIC ACID]
Not Active: IC50 [1] | IC50 [2] | IC50 [3] | IC50 [4] | IC50 [5] | IC50 [6] | Ki [6]

O=C(O)P(=O)(O)O [FOSCARNET]
Not Active: IC50 [1] | IC50 [2] | IC50 [3] | IC50 [4] | IC50 [5] | IC50 [6] | Ki [6]

O=c1c(-c2ccc(O)cc2)coc2cc(O)cc(O)c12 [GENISTEIN]
Not Active: IC50 [2] | IC50 [3] | IC50 [4] | IC50 [5] | IC50 [6] | Ki [6]
45 µM: IC50 ([1]; read-out: IC50)

C[N+](C)(C)C[C@H](O)CC(=O)[O-] [LEVOCARNITINE]
Not Active: IC50 [1] | IC50 [2] | IC50 [3] | IC50 [4] | IC50 [5] | IC50 [6] | Ki [6]

C[C@H]1COc2c(N3CCN(C)CC3)c(F)cc3c(=O)c(C(=O)O)cn1c23.C[C@H]1COc2c(N3CCN(C)CC3)c(F)cc3c(=O)c(C(=O)O)cn1c23.O [LEVOFLOXACIN]
Not Active: IC50 [1] | IC50 [2] | IC50 [3] | IC50 [4] | IC50 [5] | IC50 [6] | Ki [6]

CN(C)C(=N)NC(=N)N [METFORMIN]
Not Active: IC50 [1] | IC50 [2] | IC50 [3] | IC50 [4] | IC50 [5] | IC50 [6] | Ki [6]

CS(=O)(=O)Nc1ccc([N+](=O)[O-])cc1Oc1ccccc1 [NIMESULIDE]
Not Active: IC50 [1] | IC50 [2] | IC50 [3] | IC50 [4] | IC50 [5] | IC50 [6] | Ki [6]

COc1ccc2c(c1OC)C(=O)O[C@@H]2[C@H]1c2c(cc3c(c2OC)OCO3)CCN1C [NOSCAPINE]
Not Active: IC50 [1] | IC50 [2] | IC50 [3] | IC50 [4] | IC50 [5] | IC50 [6] | Ki [6]

NC(=O)N1c2ccccc2CC(=O)c2ccccc21 [OXCARBAZEPINE]
Not Active: IC50 [1] | IC50 [2] | IC50 [3] | IC50 [4] | IC50 [5] | IC50 [6] | Ki [6]

CCN(CC)CCNC(=O)c1ccc(N)cc1 [PROCAINAMIDE]
Not Active: IC50 [1] | IC50 [2] | IC50 [3] | IC50 [4] | IC50 [5] | IC50 [6] | Ki [6]
